Legend:
[1] = biological target: BMP-2-inducible protein kinase (Homo sapiens) (UniProt Q9NSY1); assay: Selectivity interaction (Kinase panel (DSF assay)) EUB0001559a BMP2K
[2] = biological target: Phosphatidylinositol 4-phosphate 3-kinase C2 domain-containing subunit beta (Homo sapiens) (UniProt O00750); assay: Selectivity interaction (KinomeScan (DiscoverX)) EUB0000655a PIK3C2B; details: at 10 µM
[3] = biological target: MAP/microtubule affinity-regulating kinase 3 (Homo sapiens) (UniProt P27448); assay: Selectivity interaction (KinomeScan (DiscoverX)) EUB0001079a MARK3; details: at 1 µM
[4] = biological target: T1, Serine/threonine-protein kinase Chk1 (Homo sapiens) (UniProt O14757); assay: Selectivity interaction (Millipore kinase profiler) EUB0000124b CHEK1; details: at 10 µM
T1 sequence (whole entry): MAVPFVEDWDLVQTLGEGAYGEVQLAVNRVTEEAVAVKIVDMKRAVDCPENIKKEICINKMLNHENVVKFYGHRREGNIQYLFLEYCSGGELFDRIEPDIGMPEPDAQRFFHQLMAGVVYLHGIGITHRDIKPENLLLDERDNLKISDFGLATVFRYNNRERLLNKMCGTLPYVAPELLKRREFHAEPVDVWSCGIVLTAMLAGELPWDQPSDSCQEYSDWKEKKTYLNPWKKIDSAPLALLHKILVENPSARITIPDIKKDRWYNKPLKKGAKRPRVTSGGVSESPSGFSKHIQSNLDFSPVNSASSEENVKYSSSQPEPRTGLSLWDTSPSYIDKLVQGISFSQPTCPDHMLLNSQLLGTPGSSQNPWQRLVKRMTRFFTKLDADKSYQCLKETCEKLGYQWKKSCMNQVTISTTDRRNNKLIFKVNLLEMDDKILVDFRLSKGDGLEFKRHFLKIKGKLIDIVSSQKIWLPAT

[5] = biological target: Casein kinase I isoform delta (Homo sapiens, UniProt P48730); assay: Selectivity interaction (KinomeScan (DiscoverX)) EUB0000607a CSNK1D; details: at 10 µM
[6] = biological target: T2, Serine/threonine-protein kinase NLK (Homo sapiens) (UniProt Q9UBE8); assay: Selectivity interaction (Upstate Kinase Profiler service (Millipore)) EUB0000056c NLK; details: at 1 µM
T2 sequence (whole entry): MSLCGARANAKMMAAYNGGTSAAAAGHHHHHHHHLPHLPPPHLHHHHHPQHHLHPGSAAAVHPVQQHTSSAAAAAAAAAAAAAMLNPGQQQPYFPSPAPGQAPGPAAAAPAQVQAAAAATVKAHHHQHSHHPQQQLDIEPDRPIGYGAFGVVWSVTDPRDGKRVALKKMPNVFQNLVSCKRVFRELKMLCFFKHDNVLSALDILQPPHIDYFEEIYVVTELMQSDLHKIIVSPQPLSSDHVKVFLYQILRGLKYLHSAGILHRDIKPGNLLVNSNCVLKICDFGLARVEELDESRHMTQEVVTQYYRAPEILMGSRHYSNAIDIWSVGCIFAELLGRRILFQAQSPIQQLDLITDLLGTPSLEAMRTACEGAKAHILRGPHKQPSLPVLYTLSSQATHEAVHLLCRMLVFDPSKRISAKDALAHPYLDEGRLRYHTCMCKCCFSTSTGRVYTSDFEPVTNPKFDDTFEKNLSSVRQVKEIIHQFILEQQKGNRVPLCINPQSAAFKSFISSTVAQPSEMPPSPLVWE

[7] = biological target: T3, Ephrin type-B receptor 4 (Homo sapiens) (UniProt P54760); assay: Selectivity interaction (Kinase screening (Nanosyn)) EUB0000604a EPHB4
T3 sequence (whole entry): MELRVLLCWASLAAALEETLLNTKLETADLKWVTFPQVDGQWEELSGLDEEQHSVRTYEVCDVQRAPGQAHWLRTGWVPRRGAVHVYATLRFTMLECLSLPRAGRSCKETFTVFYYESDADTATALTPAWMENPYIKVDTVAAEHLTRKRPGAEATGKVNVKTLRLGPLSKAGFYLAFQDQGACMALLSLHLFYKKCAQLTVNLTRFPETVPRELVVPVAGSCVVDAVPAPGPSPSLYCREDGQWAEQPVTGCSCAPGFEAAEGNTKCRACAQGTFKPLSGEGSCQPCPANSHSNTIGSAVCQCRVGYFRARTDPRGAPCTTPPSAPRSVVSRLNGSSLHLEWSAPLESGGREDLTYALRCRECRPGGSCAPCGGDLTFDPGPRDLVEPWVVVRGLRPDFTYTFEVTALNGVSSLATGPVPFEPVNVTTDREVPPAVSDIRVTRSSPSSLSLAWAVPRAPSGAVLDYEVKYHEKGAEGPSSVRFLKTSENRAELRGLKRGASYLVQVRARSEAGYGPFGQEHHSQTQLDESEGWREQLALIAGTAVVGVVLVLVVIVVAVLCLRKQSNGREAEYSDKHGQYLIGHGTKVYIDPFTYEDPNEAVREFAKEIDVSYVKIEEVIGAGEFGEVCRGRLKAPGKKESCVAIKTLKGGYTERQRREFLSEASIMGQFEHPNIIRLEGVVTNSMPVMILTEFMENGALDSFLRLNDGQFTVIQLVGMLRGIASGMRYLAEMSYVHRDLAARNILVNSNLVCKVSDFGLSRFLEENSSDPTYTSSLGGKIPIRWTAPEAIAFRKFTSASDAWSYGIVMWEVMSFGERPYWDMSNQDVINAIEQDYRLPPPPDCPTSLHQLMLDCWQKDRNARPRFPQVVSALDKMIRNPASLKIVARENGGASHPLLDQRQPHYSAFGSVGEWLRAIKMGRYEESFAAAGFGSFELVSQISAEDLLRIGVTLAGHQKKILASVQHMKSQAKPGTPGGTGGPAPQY

Sequence of MAP/microtubule affinity-regulating kinase 3 (Homo sapiens) (P27448 whole entry, looked up): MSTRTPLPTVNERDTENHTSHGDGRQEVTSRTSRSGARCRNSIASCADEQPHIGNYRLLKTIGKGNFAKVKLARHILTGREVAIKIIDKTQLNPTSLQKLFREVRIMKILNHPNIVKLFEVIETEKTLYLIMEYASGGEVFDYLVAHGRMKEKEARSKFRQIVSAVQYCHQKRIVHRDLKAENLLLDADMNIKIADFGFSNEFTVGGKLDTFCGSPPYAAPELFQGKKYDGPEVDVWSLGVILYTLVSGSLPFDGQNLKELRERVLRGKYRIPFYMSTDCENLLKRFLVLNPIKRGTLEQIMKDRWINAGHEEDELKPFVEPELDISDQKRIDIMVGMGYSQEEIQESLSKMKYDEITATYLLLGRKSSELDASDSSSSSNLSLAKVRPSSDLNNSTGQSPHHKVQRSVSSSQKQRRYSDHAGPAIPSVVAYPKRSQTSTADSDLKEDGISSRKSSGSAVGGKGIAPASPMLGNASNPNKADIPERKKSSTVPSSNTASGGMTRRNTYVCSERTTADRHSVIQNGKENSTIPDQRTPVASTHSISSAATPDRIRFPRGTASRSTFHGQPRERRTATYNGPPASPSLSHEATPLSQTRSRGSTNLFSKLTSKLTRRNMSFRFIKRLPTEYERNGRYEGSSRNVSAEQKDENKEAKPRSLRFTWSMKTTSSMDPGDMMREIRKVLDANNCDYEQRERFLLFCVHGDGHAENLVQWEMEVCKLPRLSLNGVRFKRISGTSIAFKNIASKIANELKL
Sequence of Casein kinase I isoform delta (P48730 whole entry, looked up, canonical isoform): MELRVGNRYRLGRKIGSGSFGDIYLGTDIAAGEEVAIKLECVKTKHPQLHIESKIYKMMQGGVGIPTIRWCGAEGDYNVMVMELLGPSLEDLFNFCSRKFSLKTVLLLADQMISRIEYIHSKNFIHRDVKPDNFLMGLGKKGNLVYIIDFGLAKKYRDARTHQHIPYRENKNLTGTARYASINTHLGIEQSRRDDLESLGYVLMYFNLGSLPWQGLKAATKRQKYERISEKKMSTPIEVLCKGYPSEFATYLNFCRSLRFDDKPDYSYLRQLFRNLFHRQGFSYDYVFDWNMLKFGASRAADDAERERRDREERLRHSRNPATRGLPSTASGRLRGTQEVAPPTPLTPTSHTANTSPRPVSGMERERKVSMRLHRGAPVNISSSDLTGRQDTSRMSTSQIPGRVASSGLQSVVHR
Sequence of Phosphatidylinositol 4-phosphate 3-kinase C2 domain-containing subunit beta (Homo sapiens) (O00750 whole entry, the tested form may be a part): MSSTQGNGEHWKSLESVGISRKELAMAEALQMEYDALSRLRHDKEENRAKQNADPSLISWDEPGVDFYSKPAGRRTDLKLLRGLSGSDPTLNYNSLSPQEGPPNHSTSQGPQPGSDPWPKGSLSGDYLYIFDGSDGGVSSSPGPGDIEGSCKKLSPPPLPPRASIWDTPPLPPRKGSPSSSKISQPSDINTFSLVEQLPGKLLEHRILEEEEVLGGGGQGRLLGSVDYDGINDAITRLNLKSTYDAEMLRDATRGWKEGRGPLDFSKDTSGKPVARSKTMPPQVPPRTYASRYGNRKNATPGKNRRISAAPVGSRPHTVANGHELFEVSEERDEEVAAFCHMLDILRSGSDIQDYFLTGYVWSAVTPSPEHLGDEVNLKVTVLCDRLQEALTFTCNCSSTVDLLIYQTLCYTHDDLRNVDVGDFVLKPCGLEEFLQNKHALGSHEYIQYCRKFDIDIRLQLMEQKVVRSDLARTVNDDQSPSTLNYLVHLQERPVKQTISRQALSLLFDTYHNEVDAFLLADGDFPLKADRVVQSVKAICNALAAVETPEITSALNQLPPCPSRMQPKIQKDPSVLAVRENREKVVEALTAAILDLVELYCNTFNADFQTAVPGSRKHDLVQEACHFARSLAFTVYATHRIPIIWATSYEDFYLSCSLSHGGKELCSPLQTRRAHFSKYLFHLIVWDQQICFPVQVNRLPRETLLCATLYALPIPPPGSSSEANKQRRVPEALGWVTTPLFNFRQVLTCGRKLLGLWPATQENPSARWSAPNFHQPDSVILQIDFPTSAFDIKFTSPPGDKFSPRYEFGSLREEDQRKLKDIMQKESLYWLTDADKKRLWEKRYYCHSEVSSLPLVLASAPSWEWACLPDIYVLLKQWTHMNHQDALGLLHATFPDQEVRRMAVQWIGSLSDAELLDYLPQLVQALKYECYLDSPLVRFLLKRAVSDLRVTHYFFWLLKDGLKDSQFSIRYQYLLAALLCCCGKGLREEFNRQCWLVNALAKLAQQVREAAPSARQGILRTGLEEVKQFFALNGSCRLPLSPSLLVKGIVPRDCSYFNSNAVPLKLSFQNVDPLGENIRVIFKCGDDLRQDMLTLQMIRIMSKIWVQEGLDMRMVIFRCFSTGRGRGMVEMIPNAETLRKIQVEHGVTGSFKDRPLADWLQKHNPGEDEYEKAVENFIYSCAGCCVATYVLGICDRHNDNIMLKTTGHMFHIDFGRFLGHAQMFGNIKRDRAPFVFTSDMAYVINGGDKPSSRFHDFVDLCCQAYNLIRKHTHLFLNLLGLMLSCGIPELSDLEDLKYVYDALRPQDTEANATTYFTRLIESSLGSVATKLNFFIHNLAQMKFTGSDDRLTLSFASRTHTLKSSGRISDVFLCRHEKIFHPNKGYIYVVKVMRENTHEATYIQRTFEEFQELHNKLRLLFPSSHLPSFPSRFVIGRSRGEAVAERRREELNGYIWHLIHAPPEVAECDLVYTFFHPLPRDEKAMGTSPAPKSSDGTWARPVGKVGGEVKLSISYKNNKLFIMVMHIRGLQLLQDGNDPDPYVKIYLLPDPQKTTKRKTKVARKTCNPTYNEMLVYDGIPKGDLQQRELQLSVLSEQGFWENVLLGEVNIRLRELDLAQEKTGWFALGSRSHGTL
Sequence of BMP-2-inducible protein kinase (Homo sapiens) (Q9NSY1 whole entry, looked up, the tested form may be a part): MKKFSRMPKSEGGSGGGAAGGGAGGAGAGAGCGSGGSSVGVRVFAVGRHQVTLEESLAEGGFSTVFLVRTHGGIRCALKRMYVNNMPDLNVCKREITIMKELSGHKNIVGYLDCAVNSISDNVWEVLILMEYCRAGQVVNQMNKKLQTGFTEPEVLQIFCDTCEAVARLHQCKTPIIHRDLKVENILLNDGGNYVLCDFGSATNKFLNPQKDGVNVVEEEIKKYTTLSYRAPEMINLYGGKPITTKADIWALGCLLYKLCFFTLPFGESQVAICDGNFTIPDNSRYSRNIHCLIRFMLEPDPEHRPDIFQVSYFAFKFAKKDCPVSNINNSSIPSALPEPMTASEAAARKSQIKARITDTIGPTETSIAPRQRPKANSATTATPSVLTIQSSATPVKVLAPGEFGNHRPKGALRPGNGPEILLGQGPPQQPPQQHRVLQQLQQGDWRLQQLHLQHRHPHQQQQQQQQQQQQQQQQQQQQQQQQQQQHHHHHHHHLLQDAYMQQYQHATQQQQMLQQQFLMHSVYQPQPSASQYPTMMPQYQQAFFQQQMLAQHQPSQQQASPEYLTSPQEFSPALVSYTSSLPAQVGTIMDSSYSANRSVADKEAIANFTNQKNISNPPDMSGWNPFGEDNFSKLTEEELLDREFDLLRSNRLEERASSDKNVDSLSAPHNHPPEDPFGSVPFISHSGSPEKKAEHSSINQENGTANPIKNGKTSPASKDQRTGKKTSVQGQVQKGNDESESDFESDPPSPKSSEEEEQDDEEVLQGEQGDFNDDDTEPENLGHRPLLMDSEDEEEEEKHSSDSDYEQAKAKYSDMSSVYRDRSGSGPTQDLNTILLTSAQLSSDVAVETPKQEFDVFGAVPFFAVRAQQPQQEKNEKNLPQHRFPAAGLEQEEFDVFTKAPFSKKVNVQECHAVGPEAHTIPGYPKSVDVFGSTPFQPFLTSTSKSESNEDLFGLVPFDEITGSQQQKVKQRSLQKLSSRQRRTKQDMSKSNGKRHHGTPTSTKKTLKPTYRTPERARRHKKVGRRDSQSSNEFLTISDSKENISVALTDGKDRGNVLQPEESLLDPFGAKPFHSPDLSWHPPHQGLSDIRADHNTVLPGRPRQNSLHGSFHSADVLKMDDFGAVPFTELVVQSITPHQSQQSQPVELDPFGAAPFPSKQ

CN(C(=O)c1cnn2cccnc12)c1cc2c(cc1N1CCOCC1)C(=O)N(C[C@@H](F)C(C)(C)O)C2
dTM [1]: -0.2 K

CN(C)CCOc1ccc(-c2nc(-c3ccncc3)c(-c3ccc4c(c3)CC/C4=N\O)[nH]2)cc1
% of control [2]: 64%

Nc1cnc(N2CCc3cc(S(=O)(=O)Nc4c(F)cc(Cl)cc4F)cc(N4CCCC4=O)c32)nc1 [TP-020n]
% of control [3]: 100%

CC(=O)Nc1cccc(-n2c(=O)n(C3CC3)c(=O)c3c(Nc4ccc(I)cc4F)n(C)c(=O)c(C)c32)c1
% of control [4]: 113%

CNC(=O)Nc1ccc(-c2nc(N3CC4CCC(C3)O4)c3cnn(C4CCC5(CC4)OCCO5)c3n2)cc1
% of control [5]: 92%

Cc1ccc(-c2ccc3c(ccc4sc5c(c43)NC[C@@H](C)NC5=O)n2)cn1
% of inhibition [6]: 25%

Cc1cnc(Nc2ccc(F)cc2Cl)nc1-c1c[nH]c(C(=O)N[C@H](CO)c2cccc(Cl)c2)c1
% of inhibition [7]: 0%
